Results: ChEMBL document CHEMBL5729561, “Compounds and uses thereof” (2023)

Assay: On day 0 cells were seeded in 30 μL media into each well of 384-well cell culture plates. The seeding density was 8000 cells/well. On day 1, cells were treated with 30 nL DMSO or 30 nL of 3-fold serially DMSO-diluted compounds (10 points in duplicates with 1 μM as final top dose). Subsequently plates were incubated for 6 hours in a standard tissue culture incubator and equilibrated at room temperature for 15 minutes. Nanoluciferase activity was measured by adding 15 μL of freshly prepared Nano-Glo Luciferase Assay Reagent (Promega N1130), shaking the plates for 10 minutes and reading the bioluminescence using an EnVision reader.
Assay type: cell-based
For COc1cc(-c2cn(C)c(=O)c3cnccc23)cc(OC)c1CN(C)C1CC2CC1CN2C(=O)CCOCCOc1cccc2c1C(=O)N(C1CCC(=O)NC1=O)C2=O (centres undefined), the IC50 was “in the range around 0.055 µM”. In the case of COc1cc(-c2cn(C)c(=O)c3cnccc23)cc(OC)c1CN1CCCC(OCc2cn(CCCCOc3ccc4c(c3)C(=O)N(C3CCC(=O)NC3=O)C4=O)nn2)C1 (centres undefined), the IC50 is reported as “in the range around 0.055 µM”. For COc1cc(-c2cn(C)c(=O)c3cnccc23)cc(OC)c1CN1CC[C@H]1CN(C)Cc1cccc2c1C(=O)N(C1CCC(=O)NC1=O)C2=O (some centres undefined), the IC50 was “in the range around 0.055 µM”. With COc1cc(-c2cn(C)c(=O)c3cnccc23)cc(OC)c1CN(C)C1CC2CN(C(=O)CCOCCOc3cccc4c3C(=O)N(C3CCC(=O)NC3=O)C4=O)CC2C1 (centres undefined) the IC50 was “in the range around 0.055 µM”. For COc1cc(-c2cn(C)c(=O)c3cnccc23)cc(OC)c1CN1CCN(C(=O)CCCOc2cccc3c2C(=O)N(C2CCC(=O)NC2=O)C3=O)CC1 (centres undefined), the IC50 was < 0.01 µM. With COc1cc(-c2cn(C)c(=O)c3cnccc23)cc(OC)c1CN1CCC2(CC1)CN(C(=O)COc1ccc3c(c1)C(=O)N(C1CCC(=O)NC1=O)C3=O)CCO2 (centres undefined) the IC50 was “in the range around 0.55 µM”. With COc1cc(-c2cn(C)c(=O)c3cnccc23)cc(OC)c1CN1CCC2(C[C@H]2NC(=O)CCOCCOc2cccc3c2C(=O)N(C2CCC(=O)NC2=O)C3=O)C1 (some centres undefined) the IC50 was “in the range around 0.055 µM”. With COc1cc(-c2cn(C)c(=O)c3cnccc23)cc(OC)c1CN1CCC12CCN(C(=O)CCOCCOc1ccc3c(c1)C(=O)N(C1CCC(=O)NC1=O)C3=O)C2 (centres undefined) the IC50 was “in the range around 0.55 µM”. In the case of COc1cc(-c2cn(C)c(=O)c3cnccc23)cc(OC)c1CN1CC2CN(C(=O)CCOCCOc3ccc4c(c3)C(=O)N(C3CCC(=O)NC3=O)C4=O)CCC21 (centres undefined), the IC50 is reported as < 0.01 µM. For COc1cc(-c2cn(C)c(=O)c3cnccc23)cc(OC)c1CN1CCCC(OCc2cn(CCCCCOc3ccc4c(c3)C(=O)N(C3CCC(=O)NC3=O)C4=O)nn2)C1 (centres undefined), the IC50 was < 0.01 µM. In the case of COc1cc(-c2cn(C)c(=O)c3cnccc23)cc(OC)c1CN(C)C1CCC2CN(C(=O)CCOCCOc3ccc4c(c3)C(=O)N(C3CCC(=O)NC3=O)C4=O)CC21 (centres undefined), the IC50 is reported as < 0.01 µM. In the case of COc1cc(-c2cn(C)c(=O)c3cnccc23)cc(OC)c1CN1CCC2(CCN(C(=O)CCOCCOc3cccc4c3C(=O)N(C3CCC(=O)NC3=O)C4=O)C2)C1 (centres undefined), the IC50 is reported as < 0.01 µM. In the case of COc1cc(-c2cn(C)c(=O)c3cnccc23)cc(OC)c1CN(C)CC1CC2(CCN(C(=O)CCOCCOc3cccc4c3C(=O)N(C3CCC(=O)NC3=O)C4=O)CC2)O1 (centres undefined), the IC50 is reported as “in the range around 0.055 µM”. With COc1cc(-c2cn(C)c(=O)c3cnccc23)cc(OC)c1CN1CC[C@H]1C(=O)NCCCCCCCCNc1cccc2c1C(=O)N(C1CCC(=O)NC1=O)C2=O (some centres undefined) the IC50 was < 0.01 µM. In the case of COc1cc(-c2cn(C)c(=O)c3cnccc23)cc(OC)c1CN1CCC(OCc2cn(CCCCCOc3ccc4c(c3)C(=O)N(C3CCC(=O)NC3=O)C4=O)nn2)C1 (centres undefined), the IC50 is reported as < 0.01 µM. In the case of COc1cc(-c2cn(C)c(=O)c3cnccc23)cc(OC)c1CN(C)C12CC(NC(=O)CCCCCOc3cccc4c3C(=O)N(C3CCC(=O)NC3=O)C4=O)(C1)C2 (centres undefined), the IC50 is reported as < 0.01 µM. With COc1cc(-c2cn(C)c(=O)c3cnccc23)cc(OC)c1CN(C)Cc1cn(CCCCCOc2ccc3c(c2)C(=O)N(C2CCC(=O)NC2=O)C3=O)nn1 (centres undefined) the IC50 was “in the range around 0.055 µM”. In the case of COc1cc(-c2cn(C)c(=O)c3cnccc23)cc(OC)c1CN1CCN(C(=O)C2CC2CNC(=O)COc2cccc3c2C(=O)N(C2CCC(=O)NC2=O)C3=O)CC1 (centres undefined), the IC50 is reported as “in the range around 0.55 µM”. With COc1cc(-c2cn(C)c(=O)c3cnccc23)cc(OC)c1CN1CC2(C1)CN(C(=O)CCCCOc1cccc3c1C(=O)N(C1CCC(=O)NC1=O)C3=O)C2 (centres undefined) the IC50 was < 0.01 µM. For COc1cc(-c2cn(C)c(=O)c3cnccc23)cc(OC)c1CN1CCC2(CC1)CN(C(=O)CCOCCOc1cccc3c1C(=O)N(C1CCC(=O)NC1=O)C3=O)C2 (centres undefined), the IC50 was “in the range around 0.055 µM”. In the case of COc1cc(-c2cn(C)c(=O)c3cnccc23)cc(OC)c1CN(C)CC1CC12CCN(C(=O)CCOCCOc1ccc3c(c1)C(=O)N(C1CCC(=O)NC1=O)C3=O)CC2 (centres undefined), the IC50 is reported as “in the range around 0.055 µM”. For COc1cc(-c2cn(C)c(=O)c3cnccc23)cc(OC)c1CN(C)C1CC2CN(C(=O)CCOCCOc3ccc4c(c3)C(=O)N(C3CCC(=O)NC3=O)C4=O)CC2C1 (centres undefined), the IC50 was “in the range around 0.055 µM”. For COc1cc(-c2cn(C)c(=O)c3cc(O)ccc23)cc(OC)c1CN1CCC2(CC1)CN(C(=O)CCCOc1cccc3c1C(=O)N(C1CCC(=O)NC1=O)C3=O)CCO2 (centres undefined), the IC50 was “in the range around 0.055 µM”. In the case of COc1cc(-c2cn(C)c(=O)c3cnccc23)cc(OC)c1CN1CCC(OCc2cn(CCOCCOc3ccc4c(c3)C(=O)N(C3CCC(=O)NC3=O)C4=O)nn2)C1 (centres undefined), the IC50 is reported as “in the range around 0.055 µM”. For COc1cc(-c2cn(C)c(=O)c3cnccc23)cc(OC)c1CN(C)C1CC2CC1CN2C(=O)CCOCCOc1ccc2c(c1)C(=O)N(C1CCC(=O)NC1=O)C2=O (centres undefined), the IC50 was < 0.01 µM. With COc1cc(-c2cn(C)c(=O)c3cnccc23)cc(OC)c1CN(C)CCc1cn(CCCCOc2ccc3c(c2)C(=O)N(C2CCC(=O)NC2=O)C3=O)nn1 (centres undefined) the IC50 was “in the range around 0.055 µM”. In the case of COc1cc(-c2cn(C)c(=O)c3cnccc23)cc(OC)c1CN1CCC(COC2CCN(C(=O)CCOCCOc3ccc4c(c3)C(=O)N(C3CCC(=O)NC3=O)C4=O)C2)CC1 (centres undefined), the IC50 is reported as < 0.01 µM. With COc1cc(-c2cn(C)c(=O)c3cnccc23)cc(OC)c1CN1CC2(CC(NC(=O)CCOCCOc3cccc4c3C(=O)N(C3CCC(=O)NC3=O)C4=O)C2)C1 (centres undefined) the IC50 was “in the range around 0.055 µM”. In the case of COc1cc(-c2cn(C)c(=O)c3cnccc23)cc(OC)c1CN1CC2(CCC2NC(=O)CCOCCOc2cccc3c2C(=O)N(C2CCC(=O)NC2=O)C3=O)C1 (centres undefined), the IC50 is reported as > 1 µM. For COc1cc(-c2cn(C)c(=O)c3cnccc23)cc(OC)c1CN1CC(OCc2cn(CCCCCOc3ccc4c(c3)C(=O)N(C3CCC(=O)NC3=O)C4=O)nn2)C1 (centres undefined), the IC50 was “in the range around 0.055 µM”. In the case of COc1cc(-c2cn(C)c(=O)c3cnccc23)cc(OC)c1CN1CCC(OCc2cn(CCCCOc3ccc4c(c3)C(=O)N(C3CCC(=O)NC3=O)C4=O)nn2)CC1 (centres undefined), the IC50 is reported as “in the range around 0.055 µM”. With COc1cc(-c2cn(C)c(=O)c3cnccc23)cc(OC)c1CN(C)C12CC(NC(=O)CCOCCOCCNc3cccc4c3C(=O)N(C3CCC(=O)NC3=O)C4=O)(C1)C2 (centres undefined) the IC50 was < 0.01 µM. In the case of COc1cc(-c2cn(C)c(=O)c3cnccc23)cc(OC)c1CN1CCC(OC2CCN(C(=O)CCOCCOc3ccc4c(c3)C(=O)N(C3CCC(=O)NC3=O)C4=O)CC2)CC1 (centres undefined), the IC50 is reported as < 0.01 µM. For COc1cc(-c2cn(C)c(=O)c3cnccc23)cc(OC)c1CN(C)CC1CC2(CCN(C(=O)CCOCCOc3ccc4c(c3)C(=O)N(C3CCC(=O)NC3=O)C4=O)CC2)C1 (centres undefined), the IC50 was “in the range around 0.055 µM”. In the case of COc1cc(-c2cn(C)c(=O)c3cnccc23)cc(OC)c1CN1CCC(C2CCN(C(=O)CCOCCOc3ccc4c(c3)C(=O)N(C3CCC(=O)NC3=O)C4=O)C2)CC1 (centres undefined), the IC50 is reported as < 0.01 µM. With COc1cc(-c2cn(C)c(=O)c3cnccc23)cc(OC)c1CN1CCC(OCc2cn(CCOc3ccc4c(c3)C(=O)N(C3CCC(=O)NC3=O)C4=O)nn2)C1 (centres undefined) the IC50 was “in the range around 0.055 µM”. For COc1cc(-c2cn(C)c(=O)c3cnccc23)cc(OC)c1CN1CCC2(C1)CN(C(=O)CCOCCOc1cccc3c1C(=O)N(C1CCC(=O)NC1=O)C3=O)C2 (centres undefined), the IC50 was “in the range around 0.055 µM”. For COc1cc(-c2cn(C)c(=O)c3cnccc23)cc(OC)c1CN1CCC2(CC1)CN(C(=O)CCCCOc1cccc3c1C(=O)N(C1CCC(=O)NC1=O)C3=O)CCO2 (centres undefined), the IC50 was < 0.01 µM. With COc1cc(-c2cn(C)c(=O)c3cnccc23)cc(OC)c1CN(C)CCc1cn(-c2ccc3c(c2)C(=O)N(C2CCC(=O)NC2=O)C3=O)nn1 (centres undefined) the IC50 was “in the range around 0.055 µM”.
